# Assay results taken from patent publication US8846698B2, “Pyrrolo[2,3-d]pyrimidine tropomysin-related kinase inhibitors” (Pfizer Limited, priority 2011, dated 2014).
# Biological target: TRKA (Homo sapiens (Human), UniProt P04629)
# Test: Isolated TRK enzyme assay (HTRF KinEASE-TK), TRKA
# Type: biochemical
# Details: read-out: Trka enzyme (IC50)
# Chain of TRKA (P04629 441-796): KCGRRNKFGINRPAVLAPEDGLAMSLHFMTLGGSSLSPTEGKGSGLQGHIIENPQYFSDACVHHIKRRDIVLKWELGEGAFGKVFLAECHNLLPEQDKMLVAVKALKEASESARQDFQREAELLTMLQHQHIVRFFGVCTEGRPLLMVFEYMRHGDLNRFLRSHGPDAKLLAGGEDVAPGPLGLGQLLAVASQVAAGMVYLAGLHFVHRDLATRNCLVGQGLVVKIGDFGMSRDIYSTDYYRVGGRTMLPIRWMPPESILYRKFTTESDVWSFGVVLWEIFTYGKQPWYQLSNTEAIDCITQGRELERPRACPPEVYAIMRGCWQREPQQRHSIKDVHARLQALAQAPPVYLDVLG
row,SMILES,IC50 [nM]
1,"Cn1cc(C(=O)c2cncc(NC(=O)Cc3cccc(C(F)(F)F)c3)c2)c2cncnc21 [Example 194, N-{5-[(7-methyl-7H-pyrrolo[2,3-d]pyrimidin-5-yl)carbonyl]pyridin-3-yl}-2-[3-(trifluoromethyl)phenyl]acetamide]",101
2,"Cn1cc(C(=O)c2cncc(NC(=O)Cc3ccc(F)c(F)c3)c2)c2cncnc21 [Example 195, 2-(3,4-difluorophenyl)-N-{5-[(7-methyl-7H-pyrrolo[2,3-d]pyrimidin-5-yl)carbonyl]yridine-3-yl}acetamide]",835
3,"Cn1cc(C(=O)c2cncc(NC(=O)CCc3ccccc3Cl)c2)c2cncnc21 [Example 198, 3-(2-chlorophenyl)-N-{5-[(7-methyl-7H-pyrrolo[2,3-d]pyrimidin-5-yl)carbonyl]pyridin-3-yl}propanamide]",2350
4,"CC(C)(C)n1cc(C(=O)c2cncc(NC(=O)Cc3coc(C4CC4)n3)c2)c2cncnc21 [Example 199, N-{5-[(7-tert-butyl-7H-pyrrolo[2,3-d]pyrimidin-5-yl)carbonyl]pyridin-3-yl}-2-(2-cyclopropyl-1,3-oxazol-4-yl)acetamide]",22.1
5,"Cn1cc(CC(=O)Nc2cncc(C(=O)c3cn(C(C)(C)C)c4ncncc34)c2)cn1 [Example 202, N-{5-[(7-tert-butyl-7H-pyrrolo[2,3-d]pyrimidin-5-yl)carbonyl]pyridin-3-yl}-2-(1-methyl-1H-pyrazol-4-yl)acetamide]",412
6,"Cn1cc(CC(=O)Nc2cncc(C(=O)c3cn(C(C)(C)C)c4ncncc34)c2)c(C2CC2)n1 [Example 203, N-{5-[(7-tert-butyl-7H-pyrrolo[2,3-d]pyrimidin-5-yl)carbonyl]pyridin-3-yl}-2-(3-cyclopropyl-1-methyl-1H-pyrazol-4-yl)acetamide]",316
7,"C[C@@H](CO)n1cc(C(=O)c2cncc(NC(=O)Cc3cccc(C(F)(F)F)c3)c2)c2cncnc21 [Example 204, N-[5-({7-[(1S)-2-hydroxy-1-methylethyl]-7H-pyrrolo[2,3-d]pyrimidin-5-yl}carbonyl)pyridin-3-yl]-2-[3-(trifluoromethyl)phenyl]acetamide]",4.24
8,"C[C@H](CO)n1cc(C(=O)c2cncc(NC(=O)Cc3cccc(C(F)(F)F)c3)c2)c2cncnc21 [Example 205, N-[5-({7-[(1R)-2-hydroxy-1-methylethyl]-7H-pyrrolo[2,3-d]pyrimidin-5-yl}carbonyl)pyridin-3-yl]-2-[3-(trifluoromethyl)phenyl]acetamide]",12.2
9,"CC(C)c1cn(CC(=O)Nc2cncc(C(=O)c3cn([C@H](C)CO)c4ncncc34)c2)nn1 [Example 206, N-[5-({7-[(1R)-2-hydroxy-1-methylethyl]-7H-pyrrolo[2,3-d]pyrimidin-5-yl}carbonyl)pyridin-3-yl]-2-(4-isopropyl-1H-1,2,3-triazol-1-yl)acetamide]",123
10,"CC(C)n1ncc(CC(=O)Nc2cncc(C(=O)c3cn([C@H](C)CO)c4ncncc34)c2)c1C(F)(F)F [Example 207, N-[5-({7-[(1R)-2-hydroxy-1-methylethyl]-7H-pyrrolo[2,3-d]pyrimidin-5-yl}carbonyl)pyridin-3-yl]-2-[1-isopropyl-5-(trifluoromethyl)-1H-pyrazol-4-yl]acetamide]",110
11,"C[C@H](CO)n1cc(C(=O)c2cncc(NC(=O)Cc3ccc4cccnc4c3)c2)c2cncnc21 [Example 210, N-[5-({7-[(1R)-2-hydroxy-1-methylethyl]-7H-pyrrolo[2,3-d]pyrimidin-5-yl}carbonyl)pyridin-3-yl]-2-quinolin-7-ylacetamide]",185
12,"O=C(Cc1ccc(Cl)c(Cl)c1)Nc1cncc(C(=O)c2cn(C3COC3)c3ncncc23)c1 [Example 217, 2-(3,4-dichlorophenyl)-N-{5-[(7-oxetan-3-yl-7H-pyrrolo[2,3-d]pyrimidin-5-yl)carbonyl]pyridin-3-yl}acetamide]",83.3
13,"O=C(Cc1ccc2cccnc2c1)Nc1cncc(C(=O)c2cn(C3COC3)c3ncncc23)c1 [Example 222, N-{5-[(7-oxetan-3-yl-7H-pyrrolo[2,3-d]pyrimidin-5-yl)carbonyl]pyridin-3-yl}-2-quinolin-7-ylacetamide]",692
14,"O=C(CN1Cc2ccccc2C1=O)Nc1cncc(C(=O)c2cn(C3COC3)c3ncncc23)c1 [Example 224, N-{5-[(7-oxetan-3-yl-7H-pyrrolo[2,3-d]pyrimidin-5-yl)carbonyl]pyridin-3-yl}-2-(1-oxo-1,3-dihydro-2H-isoindol-2-yl)acetamide]",3100
15,"CC(C)(CO)n1cc(C(=O)c2cncc(NC(=O)Cc3ccc(C#N)cc3)c2)c2cncnc21 [Example 225, 2-(4-cyanophenyl)-N-(5-{[7-(2-hydroxy-1,1-dimethylethyl)-7H-pyrrolo[2,3-d]pyrimidin-5-yl]carbonyl}pyridin-3-yl)acetamide]",27.7
16,"CC(C)(CO)n1cc(C(=O)c2cncc(NC(=O)Cc3ccc4cccnc4c3)c2)c2cncnc21 [Example 228, N-(5-{[7-(2-hydroxy-1,1-dimethylethyl)-7H-pyrrolo[2,3-d]pyrimidin-5-yl]carbonyl}pyridin-3-yl)-2-quinolin-7-ylacetamide]",14.9

# Further compounds by falling IC50, results first:
row,IC50 [nM],SMILES
1,3100,"N#Cc1cccc(CC(=O)Nc2cncc(C(=O)c3cn(C4COC4)c4ncncc34)c2)c1 [Example 221, 2-(3-cyanophenyl)-N-{5-[(7-oxetan-3-yl-7H-pyrrolo[2,3-d]pyrimidin-5-yl)carbonyl]pyridin-3-yl}acetamide]"
2,1660,"O=C(Cc1cn2cc(Cl)ccc2n1)Nc1cncc(C(=O)c2cn(C3COC3)c3ncncc23)c1 [Example 223, 2-(6-chloroimidazo[1,2-a]pyridin-2-yl)-N-{5-[(7-oxetan-3-yl-7H-pyrrolo[2,3-d]pyrimidin-5-yl)carbonyl]pyridin-3-yl}acetamide]"
3,1210,"N#Cc1ccc(CC(=O)Nc2cncc(C(=O)c3cn(C4COC4)c4ncncc34)c2)cc1 [Example 218, 2-(4-cyanophenyl)-N-{5-[(7-oxetan-3-yl-7H-pyrrolo[2,3-d]pyrimidin-5-yl)carbonyl]pyridin-3-yl}acetamide]"
4,791,"Cn1cc(C(=O)c2cncc(NC(=O)Cc3ccc(OC(F)(F)F)cc3)c2)c2cncnc21 [Example 196, N-{5-[(7-methyl-7H-pyrrolo[2,3-d]pyrimidin-5-yl)carbonyl]yridine-3-yl}-2-[4-(trifluoromethoxy)phenyl]acetamide]"
5,482,"Cc1nn(C)cc1CC(=O)Nc1cncc(C(=O)c2cn(C(C)(C)C)c3ncncc23)c1 [Example 201, N-{5-[(7-tert-butyl-7H-pyrrolo[2,3-d]pyrimidin-5-yl)carbonyl]pyridin-3-yl}-2-(1,3-dimethyl-1H-pyrazol-4-yl)acetamide]"
6,462,"O=C(Cc1cccc(Cl)c1)Nc1cncc(C(=O)c2cn(C3COC3)c3ncncc23)c1 [Example 220, 2-(3-chlorophenyl)-N-{5-[(7-oxetan-3-yl-7H-pyrrolo[2,3-d]pyrimidin-5-yl)carbonyl]pyridin-3-yl}acetamide]"
7,430,"Cn1cc(C(=O)c2cncc(NC(=O)Cc3cccc(Cl)c3)c2)c2cncnc21 [Example 197, 2-(3-chlorophenyl)-N-{5-[(7-methyl-7H-pyrrolo[2,3-d]pyrimidin-5-yl)carbonyl]yridine-3-yl}acetamide]"
8,286,"O=C(Cc1ccc(Cl)cc1)Nc1cncc(C(=O)c2cn(C3COC3)c3ncncc23)c1 [Example 219, 2-(4-chlorophenyl)-N-{5-[(7-oxetan-3-yl-7H-pyrrolo[2,3-d]pyrimidin-5-yl)carbonyl]pyridin-3-yl}acetamide]"
9,274,"CC(CO)(CO)n1cc(C(=O)c2cncc(NC(=O)Cc3ccc(C#N)cc3)c2)c2cncnc21 [Example 232, 2-(4-Cyanophenyl)-N-[5-({7-[2-hydroxy-1-(hydroxymethyl)-1-methylethyl]-7H-pyrrolo[2,3-d]pyrimidin-5-yl}carbonyl)pyridin-3-yl]acetamide]"
10,272,"C[C@H](CO)n1cc(C(=O)c2cncc(NC(=O)Cc3cccc(S(C)(=O)=O)c3)c2)c2cncnc21 [Example 209, N-[5-({7-[(1R)-2-hydroxy-1-methylethyl]-7H-pyrrolo[2,3-d]pyrimidin-5-yl}carbonyl)pyridin-3-yl]-2-[3-(methylsulfonyl)phenyl]acetamide]"
11,129,"C[C@H](CO)n1cc(C(=O)c2cncc(NC(=O)Cc3ccc(C#N)cc3)c2)c2cncnc21 [Example 208, 2-(4-cyanophenyl)-N-[5-({7-[(1R)-2-hydroxy-1-methylethyl]-7H-pyrrolo[2,3-d]pyrimidin-5-yl}carbonyl)pyridin-3-yl]acetamide]"
12,96.5,"CC(CO)(CO)n1cc(C(=O)c2cncc(NC(=O)Cc3ccc4cccnc4c3)c2)c2cncnc21 [Example 233, N-[5-({7-[2-hydroxy-1-(hydroxymethyl)-1-methylethyl]-7H-pyrrolo[2,3-d]pyrimidin-5-yl}carbonyl)pyridin-3-yl]-2-quinolin-7-ylacetamide]"
13,84.9,"Cc1cc(C(F)(F)F)nn1CC(=O)Nc1cncc(C(=O)c2cn(C(C)(CO)CO)c3ncncc23)c1 [Example 234, N-[5-({7-[2-hydroxy-1-(hydroxymethyl)-1-methylethyl]-7H-pyrrolo[2,3-d]pyrimidin-5-yl}carbonyl)pyridin-3-yl]-2-[5-methyl-3-(trifluoromethyl)-1H-pyrazol-1-yl]acetamide]"
14,12.5,"CC(C)c1cn(CC(=O)Nc2cncc(C(=O)c3cn(C(C)(C)CO)c4ncncc34)c2)nn1 [Example 227, N-(5-{[7-(2-hydroxy-1,1-dimethylethyl)-7H-pyrrolo[2,3-d]pyrimidin-5-yl]carbonyl}pyridin-3-yl)-2-(4-isopropyl-1H-1,2,3-triazol-1-yl)acetamide]"
15,10.1,"CC(C)(C)n1cc(C(=O)c2cncc(NC(=O)Cc3cccc(S(C)(=O)=O)c3)c2)c2cncnc21 [Example 200, N-{5-[(7-tert-butyl-7H-pyrrolo[2,3-d]pyrimidin-5-yl)carbonyl]pyridin-3-yl}-2-[3-(methylsulfonyl)phenyl]acetamide]"
16,3.61,"CC(C)(CO)n1cc(C(=O)c2cncc(NC(=O)Cc3cccc(C(F)(F)F)c3)c2)c2cncnc21 [Example 226, N-(5-{[7-(2-hydroxy-1,1-dimethylethyl)-7H-pyrrolo[2,3-d]pyrimidin-5-yl]carbonyl}pyridin-3-yl)-2-[3-(trifluoromethyl)phenyl]acetamide]"
